Patent publication US11840513B2, “Substituted nicotinimide inhibitors of BTK for treating cancer” (GUANGZHOU INNOCARE PHARMA TECH CO., LTD., priority 2013, dated 2023)

Molecular target: SRC (Homo sapiens (Human), UniProt P12931)
Test: kinase-tagged phage / affinity bead competition binding screen at 1000 nM (qPCR readout)
Settings: 1000 nM screen

Chain of SRC (P12931 whole entry, looked up): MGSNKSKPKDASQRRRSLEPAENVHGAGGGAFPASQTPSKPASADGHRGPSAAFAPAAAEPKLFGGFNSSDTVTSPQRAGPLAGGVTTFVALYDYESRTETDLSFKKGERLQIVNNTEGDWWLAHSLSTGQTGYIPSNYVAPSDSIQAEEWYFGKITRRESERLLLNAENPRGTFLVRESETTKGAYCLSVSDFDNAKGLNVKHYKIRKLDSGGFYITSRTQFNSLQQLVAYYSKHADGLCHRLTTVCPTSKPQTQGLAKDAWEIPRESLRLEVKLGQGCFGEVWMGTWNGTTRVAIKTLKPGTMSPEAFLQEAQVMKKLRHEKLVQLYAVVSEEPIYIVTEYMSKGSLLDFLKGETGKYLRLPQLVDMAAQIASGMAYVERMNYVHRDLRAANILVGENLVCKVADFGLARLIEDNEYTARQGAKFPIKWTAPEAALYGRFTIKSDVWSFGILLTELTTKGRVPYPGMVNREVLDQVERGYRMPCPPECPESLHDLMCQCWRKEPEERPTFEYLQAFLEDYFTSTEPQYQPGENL

C=CC(=O)N1CCN(c2ccc(C(N)=O)c(-c3ccc(Oc4ccccc4)cc3)n2)CC1 [Example 5, 6-(4-acryloylpiperazin-1-yl)-2-(4-phenoxyphenyl)nicotinamide]
Fold Difference (BTK vs SRC): >100×
